# Source: patent publication US8802597B2, “Herbicidal pyrimidines” (E I du Pont de Nemours and Company, priority 2003, dated 2014)
# Assays:
# Assay type in all cases: in vivo
# [1] = test system: morningglory (Ipomoea coccinea); assay: Test B pre/postemergence
# Description: (§1) Seeds selected from barnyardgrass (Echinochloa crus-galli), Surinam grass (Brachiaria decumbens), cocklebur (Xanthium strumarium), corn (Zea mays), crabgrass (Digitaria sanguinalis), giant foxtail (Setaria faberii), lambsquarters (Chenopodium album), morningglory (Ipomoea coccinea), pigweed (Amaranthus retroflexus), velvetleaf (Abutilon theophrasti), and wheat (Triticum aestivum) were planted and treated preemergence with test chemicals formulated in a non-phytotoxic solvent mixture which included a surfactant.
# (§2) At the same time, plants selected from these crop and weed species and also blackgrass (Alopecurus myosuroides) and wild oat (Avena fatua) were treated with postemergence applications of test chemicals formulated in the same manner. Plants ranged in height from 2 to 18 cm (1- to 4-leaf stage) for postemergence treatments. Plant species in the flooded paddy test consisted of rice (Oryza sativa), umbrella sedge (Cyperus difformis), duck salad (Heteranthera limosa) and barnyardgrass (Echinochloa crus-galli) grown to the 2-leaf stage for testing. Treated plants and controls were maintained in a greenhouse for 13 to 15 days, after which time all species were compared to controls and visually evaluated. Plant response ratings, summarized in Table B, are based on a scale of 0 to 100 where 0 is no effect and 100 is complete control. A dash (-) response means no test result.
# [2] = test system: wheat (Triticum aestivum); assay: Test B pre/postemergence
# Description: as §1, §2
# [3] = test system: barnyardgrass (Echinochloa crus-galli); assay: Test B pre/postemergence
# Description: as §1, §2
# [4] = test system: Surinam grass (Brachiaria decumbens); assay: Test B pre/postemergence
# Description: as §1, §2
# [5] = test system: velvetleaf (Abutilon theophrasti); assay: Test B pre/postemergence
# Description: as §1, §2
# [6] = test system: giant foxtail (Setaria faberii); assay: Test B pre/postemergence
# Description: as §1, §2
# [7] = test system: cocklebur (Xanthium strumarium); assay: Test B pre/postemergence
# Description: as §1, §2
# [8] = test system: lambsquarters (Chenopodium album); assay: Test B pre/postemergence
# Description: as §1, §2
# [9] = test system: pigweed (Amaranthus retroflexus); assay: Test B pre/postemergence
# Description: as §1, §2
# [10] = test system: crabgrass (Digitaria sanguinalis); assay: Test B pre/postemergence
# Description: as §1, §2
# corn (Zea mays) = assay: Test B pre/postemergence
# Description: as §1, §2
# [11] = test system: duck salad (Heteranthera limosa); assay: Test B flooded paddy test; conditions: Flood, 1000 g ai/ha; scale 0 to 100
# Procedure: as §2
# [12] = test system: barnyardgrass (Echinochloa crus-galli); assay: Test B flooded paddy test; conditions: Flood, 1000 g ai/ha; scale 0 (no effect) to 100 (complete control)
# Procedure: as §2
# rice (Oryza sativa) = assay: Test B flooded paddy test; conditions: Flood, 1000 g ai/ha; scale 0 to 100
# Procedure: as §2
# [13] = test system: umbrella sedge (Cyperus difformis); assay: Test B flooded paddy test; conditions: Flood, 1000 g ai/ha; scale 0 to 100
# Procedure: as §2
# wild oat (Avena fatua) = assay: Test B postemergence; conditions: for Oat, Wild plant response rating: 125 g ai/ha, scale 0 to 100 (0 no effect, 100 complete control); for Plant response rating, Oat, Wild: 500 g ai/ha, scale 0 to 100
# How it was run: (§3)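 Under greenhouse conditions, seeded pots and young plants (1- to 4-leaf, 2 to 18 cm) were treated at the same time with test chemicals in a non-phytotoxic solvent mixture containing surfactant. Response was assessed visually after 13 to 15 days, from 0 (no effect) to 100 (complete control).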
# [14] = test system: blackgrass (Alopecurus myosuroides); assay: Test B postemergence; conditions: for Blackgrass plant response rating: 125 g ai/ha, scale 0 to 100 (0 no effect, 100 complete control); for Plant response rating, Blackgrass: 500 g ai/ha, scale 0 to 100
# How it was run: as §3
# [15] = Postemergence, 125 g ai/ha, scale 0 to 100 (0 no effect, 100 complete control)
# [16] = Postemergence, 500 g ai/ha, scale 0 to 100
# [17] = Preemergence, 125 g ai/ha, scale 0 to 100 (0 no effect, 100 complete control)
# [18] = Preemergence, 500 g ai/ha, scale 0 to 100 (0 no effect, 100 complete control)
smiles,measurement,setting,value
COC(OC)c1nc(C2CC2)nc(N)c1F [Compound 46],Morningglory plant response rating,[1]; [15],80
same,"Plant response rating, Morningglory",[1]; [16],90
same,"Plant response rating, Morningglory",[1]; [17],50
same,Morningglory plant response rating,[1]; [18],90
same,Wheat plant response rating,[2]; [15],0
same,"Plant response rating, Wheat",[2]; [16],0
same,"Plant response rating, Wheat",[2]; [17],0
same,"Plant response rating, Wheat",[2]; [18],20
same,Barnyardgrass plant response rating,[3]; [15],0
same,"Plant response rating, Barnyardgrass",[3]; [16],30
same,"Plant response rating, Barnyardgrass",[3]; [17],0
same,Barnyardgrass plant response rating,[3]; [18],0
same,Surinam Grass plant response rating,[4]; [15],0
same,"Plant response rating, Surinam Grass",[4]; [16],10
same,"Plant response rating, Surinam Grass",[4]; [17],0
same,Surinam Grass plant response rating,[4]; [18],40
same,Velvetleaf plant response rating,[5]; [15],0
same,"Plant response rating, Velvetleaf",[5]; [16],0
same,"Plant response rating, Velvetleaf",[5]; [17],0
same,Velvetleaf plant response rating,[5]; [18],20
same,"Foxtail, Giant plant response rating",[6]; [15],0
same,"Plant response rating, Foxtail, Giant",[6]; [16],10
same,"Plant response rating, Foxtail, Giant",[6]; [17],0
same,"Foxtail, Giant plant response rating",[6]; [18],50
same,Cocklebur plant response rating,[7]; [15],0
same,"Plant response rating, Cocklebur",[7]; [16],0
same,"Plant response rating, Cocklebur",[7]; [17],0
same,Cocklebur plant response rating,[7]; [18],40
same,Lambsquarters plant response rating,[8]; [15],10
same,"Plant response rating, Lambsquarters",[8]; [16],30
same,"Plant response rating, Lambsquarters",[8]; [17],10
same,Lambsquarters plant response rating,[8]; [18],60
same,Pigweed plant response rating,[9]; [15],70
same,"Plant response rating, Pigweed",[9]; [16],80
same,"Plant response rating, Pigweed",[9]; [17],80
same,Pigweed plant response rating,[9]; [18],90
same,Crabgrass plant response rating,[10]; [15],10
same,"Plant response rating, Crabgrass",[10]; [16],30
same,"Plant response rating, Crabgrass",[10]; [17],0
same,Crabgrass plant response rating,[10]; [18],40
same,Corn plant response rating,corn (Zea mays); [15],0
same,"Plant response rating, Corn",corn (Zea mays); [16],0
same,"Plant response rating, Corn",corn (Zea mays); [17],0
same,Corn plant response rating,corn (Zea mays); [18],0
same,"Plant response rating, Ducksalad",[11],60
same,"Plant response rating, Barnyardgrass",[12],0
same,"Plant response rating, Rice",rice (Oryza sativa),0
same,"Plant response rating, Sedge, Umbrella",[13],30
same,"Oat, Wild plant response rating",wild oat (Avena fatua),0
same,"Plant response rating, Oat, Wild",wild oat (Avena fatua),0
same,Blackgrass plant response rating,[14],0
same,"Plant response rating, Blackgrass",[14],10
CCOC(=O)c1nc(C2CC2)nc(NCCN(C)C)c1Br [Compound 38],Morningglory plant response rating,[1]; [15],10
same,"Plant response rating, Morningglory",[1]; [16],40
same,"Plant response rating, Morningglory",[1]; [17],0
same,Morningglory plant response rating,[1]; [18],50
same,Wheat plant response rating,[2]; [15],0
same,"Plant response rating, Wheat",[2]; [16],0
same,"Plant response rating, Wheat",[2]; [17],0
same,"Plant response rating, Wheat",[2]; [18],0
same,Barnyardgrass plant response rating,[3]; [15],0
same,"Plant response rating, Barnyardgrass",[3]; [16],0
same,"Plant response rating, Barnyardgrass",[3]; [17],0
same,Barnyardgrass plant response rating,[3]; [18],0
same,Surinam Grass plant response rating,[4]; [15],0
same,"Plant response rating, Surinam Grass",[4]; [16],20
same,"Plant response rating, Surinam Grass",[4]; [17],0
same,Surinam Grass plant response rating,[4]; [18],0
same,Velvetleaf plant response rating,[5]; [15],0
same,"Plant response rating, Velvetleaf",[5]; [16],50
same,"Plant response rating, Velvetleaf",[5]; [17],0
same,Velvetleaf plant response rating,[5]; [18],0
same,"Foxtail, Giant plant response rating",[6]; [15],0
same,"Plant response rating, Foxtail, Giant",[6]; [16],0
same,"Plant response rating, Foxtail, Giant",[6]; [17],0
same,"Foxtail, Giant plant response rating",[6]; [18],0
same,Cocklebur plant response rating,[7]; [15],0
same,"Plant response rating, Cocklebur",[7]; [16],0
same,"Plant response rating, Cocklebur",[7]; [17],0
same,Cocklebur plant response rating,[7]; [18],0
same,Lambsquarters plant response rating,[8]; [15],20
same,"Plant response rating, Lambsquarters",[8]; [16],60
same,"Plant response rating, Lambsquarters",[8]; [17],20
same,Lambsquarters plant response rating,[8]; [18],90
same,Pigweed plant response rating,[9]; [15],30
same,"Plant response rating, Pigweed",[9]; [16],30
same,"Plant response rating, Pigweed",[9]; [17],10
same,Pigweed plant response rating,[9]; [18],70
same,Crabgrass plant response rating,[10]; [15],0
same,"Plant response rating, Crabgrass",[10]; [16],20
same,"Plant response rating, Crabgrass",[10]; [17],0
same,Crabgrass plant response rating,[10]; [18],0
same,Corn plant response rating,corn (Zea mays); [15],0
same,"Plant response rating, Corn",corn (Zea mays); [16],0
same,"Plant response rating, Corn",corn (Zea mays); [17],0
same,Corn plant response rating,corn (Zea mays); [18],10
same,"Plant response rating, Ducksalad",[11],0
same,"Plant response rating, Barnyardgrass",[12],0
same,"Plant response rating, Rice",rice (Oryza sativa),0
same,"Plant response rating, Sedge, Umbrella",[13],0
same,"Oat, Wild plant response rating",wild oat (Avena fatua),0
same,"Plant response rating, Oat, Wild",wild oat (Avena fatua),0
same,Blackgrass plant response rating,[14],0
same,"Plant response rating, Blackgrass",[14],0
CCOC(=O)C(C)c1nc(C2CC2)nc(N)c1Br (stereo not drawn) [Compound 32],Morningglory plant response rating,[1]; [15],40
same,"Plant response rating, Morningglory",[1]; [16],90
same,"Plant response rating, Morningglory",[1]; [17],40
same,Morningglory plant response rating,[1]; [18],80
same,Wheat plant response rating,[2]; [15],20
same,"Plant response rating, Wheat",[2]; [16],30
same,"Plant response rating, Wheat",[2]; [17],0
same,Wheat plant response rating,[2]; [18],10
same,Barnyardgrass plant response rating,[3]; [15],20
same,"Plant response rating, Barnyardgrass",[3]; [16],70
same,"Plant response rating, Barnyardgrass",[3]; [17],0
same,Barnyardgrass plant response rating,[3]; [18],10
same,Surinam Grass plant response rating,[4]; [15],0
same,"Plant response rating, Surinam Grass",[4]; [16],10
same,"Plant response rating, Surinam Grass",[4]; [17],0
same,Surinam Grass plant response rating,[4]; [18],0
same,Velvetleaf plant response rating,[5]; [15],10
same,"Plant response rating, Velvetleaf",[5]; [16],50
same,"Plant response rating, Velvetleaf",[5]; [17],50
same,Velvetleaf plant response rating,[5]; [18],80
same,"Foxtail, Giant plant response rating",[6]; [15],10
same,"Plant response rating, Foxtail, Giant",[6]; [16],20
same,"Plant response rating, Foxtail, Giant",[6]; [17],0
same,"Foxtail, Giant plant response rating",[6]; [18],0
same,Cocklebur plant response rating,[7]; [15],40
same,"Plant response rating, Cocklebur",[7]; [16],90
same,"Plant response rating, Cocklebur",[7]; [17],80
same,Cocklebur plant response rating,[7]; [18],90
same,Lambsquarters plant response rating,[8]; [15],70
same,"Plant response rating, Lambsquarters",[8]; [16],80
same,"Plant response rating, Lambsquarters",[8]; [17],40
same,Lambsquarters plant response rating,[8]; [18],90
same,Pigweed plant response rating,[9]; [15],80
same,"Plant response rating, Pigweed",[9]; [16],80
same,"Plant response rating, Pigweed",[9]; [17],40
same,Pigweed plant response rating,[9]; [18],90
same,Crabgrass plant response rating,[10]; [15],10
same,"Plant response rating, Crabgrass",[10]; [16],20
same,"Plant response rating, Crabgrass",[10]; [17],0
same,Crabgrass plant response rating,[10]; [18],40
same,Corn plant response rating,corn (Zea mays); [15],0
same,"Plant response rating, Corn",corn (Zea mays); [16],10
same,"Plant response rating, Corn",corn (Zea mays); [17],0
same,Corn plant response rating,corn (Zea mays); [18],0
same,"Plant response rating, Ducksalad",[11],0
same,"Plant response rating, Barnyardgrass",[12],0
same,"Plant response rating, Rice",rice (Oryza sativa),0
same,"Plant response rating, Sedge, Umbrella",[13],0
same,"Oat, Wild plant response rating",wild oat (Avena fatua),20
same,"Plant response rating, Oat, Wild",wild oat (Avena fatua),30
same,Blackgrass plant response rating,[14],30
same,"Plant response rating, Blackgrass",[14],40
